# Columns and labels:
# Assay type in all cases: in vivo
# [1] = tested on: pigweed (Amaranthus retroflexus); experiment: Test A postemergence, visual injury rating; settings: Amaranthus retroflexus, post-emergence, 240 h, 0 is no effect, 100 is complete control, read-out: Pigweed plant response rating (0 to 100 scale)
# Method in brief: (§1)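 Scoring: eye-based comparison with untreated controls, 0 for no effect through 100 for complete control, at about day 10. Treatments: directed soil spray preemergence; foliar spray postemergence on 2–10 cm plants at the one- to two-leaf stage. Medium: loam soil with sand.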
# corn (Zea mays) = experiment: Test A postemergence, visual injury rating; settings: Zea mays, post-emergence, 240 h, 0 is no effect, 100 is complete control, read-out: Corn plant response rating (0 to 100 scale)
# Method in brief: as §1
# [2] = tested on: blackgrass (Alopecurus myosuroides); experiment: Test A postemergence, visual injury rating; settings: Alopecurus myosuroides, post-emergence, 240 h, 0 is no effect, 100 is complete control, read-out: Blackgrass plant response rating (0 to 100 scale)
# Method in brief: as §1
# [3] = tested on: wheat (Triticum aestivum); experiment: Test A postemergence, visual injury rating; settings: Triticum aestivum, post-emergence, 240 h, 0 is no effect, 100 is complete control, read-out: Wheat plant response rating (0 to 100 scale)
# Method in brief: as §1
# [4] = tested on: giant foxtail (Setaria faberii); experiment: Test A postemergence, visual injury rating; settings: Setaria faberi, post-emergence, 240 h, 0 is no effect, 100 is complete control, read-out: Foxtail, Giant plant response rating (0 to 100 scale)
# Method in brief: as §1
# [5] = tested on: galium (catchweed bedstraw, Galium aparine); experiment: Test A postemergence, visual injury rating; settings: Galium, post-emergence, 240 h, 0 is no effect, 100 is complete control, read-out: Galium plant response rating (0 to 100 scale)
# Method in brief: as §1
# [6] = tested on: ragweed (common ragweed, Ambrosia elatior); experiment: Test A postemergence, visual injury rating; settings: Ambrosia artemisiifolia, post-emergence, 240 h, 0 is no effect, 100 is complete control, read-out: Ragweed plant response rating (0 to 100 scale)
# Method in brief: as §1
# kochia (Kochia scoparia) = experiment: Test A postemergence, visual injury rating; settings: Bassia scoparia, post-emergence, 240 h, 0 is no effect, 100 is complete control, read-out: Kochia plant response rating (0 to 100 scale)
# Method in brief: as §1
# [7] = tested on: Italian ryegrass (Lolium multiflorum); experiment: Test A postemergence, visual injury rating; settings: Lolium multiflorum, post-emergence, 240 h, 0 is no effect, 100 is complete control, read-out: Ryegrass, Italian plant response rating (0 to 100 scale)
# Method in brief: as §1
# [8] = tested on: barnyardgrass (Echinochloa crus-galli); experiment: Test A postemergence, visual injury rating; settings: Echinochloa crus-galli, post-emergence, 240 h, 0 is no effect, 100 is complete control, read-out: Barnyardgrass plant response rating (0 to 100 scale)
# Method in brief: as §1
# [9] = tested on: ryegrass, Italian (Italian ryegrass, Lolium multiflorum); experiment: Test C postemergence, plant response rating; settings: Lolium multiflorum, post-emergence
# Text: (§2) Seeds of plant species selected from blackgrass (Alopecurus myosuroides), ryegrass, Italian (Italian ryegrass, Lolium multiflorum), wheat (winter wheat, Triticum aestivum), galium (catchweed bedstraw, Galium aparine), corn (Zea mays), crabgrass, large (large crabgrass, Digitaria sanguinalis), foxtail, giant (giant foxtail, Setaria faberii), johnsongrass (Sorghum halepense), lambsquarters (Chenopodium album), morningglory (Ipomoea coccinea), nutsedge, yellow (yellow nutsedge, Cyperus esculentus), pigweed (Amaranthus retroflexus), ragweed (common ragweed, Ambrosia elatior), soybean (Glycine max), barnyardgrass (Echinochloa crus-galli), oilseed rape (Brassica napus), pigweed, palmer (palmer pigweed, Amaranthus palmeri), waterhemp (common waterhemp, Amaranthus rudis), velvetleaf (Abutilon theophrasti), kochia (Kochia scoparia), surinam grass (Brachiaria decumbens), nightshade (eastern black nightshade, Solanum ptycanthum), wild poinsettia (Euphorbia heterophylla), windgrass (Apera spica-venti), and oat, wild (wild oat Avena fatua), were planted into a blend of loam soil and sand or a silt loam soil and treated preemergence with test chemicals formulated in a non-phytotoxic solvent mixture which included a surfactant.
# (§3) At the same time, plants selected from these crop and weed species and also chickweed (common chickweed, Stellaria media), buckwheat, wild (wild buckwheat, Polygonum convolvulus), wild mustard (Sinapis arvensis), field poppy (Papaver rhoeas), field violet (Viola arvensis), geranium, cutleaf (cutleaf geranium, Geranium dissectum), Canada thistle (Cirsium arvense), and speedwell (bird's-eye speedwell, Veronica persica), were planted in pots containing Sunshine Redi-Earth® planting medium comprising spaghnum peat moss, vermiculite, starter nutrients and dolomitic limestone and treated with postemergence applications of test chemicals formulated in the same manner. Plants ranged in height from 2 to 18 cm (1- to 4-leaf stage) for postemergence treatments. Treated plants and controls were maintained in a greenhouse for 13 to 15 d, after which time all species were compared to controls and visually evaluated. Plant response ratings, summarized in Table C, are based on a scale of 0 to 100 where 0 is no effect and 100 is complete control. A dash (-) response means no test result.
# [10] = tested on: lambsquarters (Chenopodium album); experiment: Test C postemergence, plant response rating; settings: Chenopodium album, post-emergence
# Text: as §2, §3
# [11] = tested on: foxtail, giant (giant foxtail, Setaria faberii); experiment: Test C postemergence, plant response rating; settings: Setaria faberi, post-emergence
# Text: as §2, §3
# [12] = tested on: oat, wild (wild oat Avena fatua); experiment: Test C postemergence, plant response rating; settings: Avena fatua, post-emergence
# Text: as §2, §3
# [13] = tested on: ragweed (common ragweed, Ambrosia elatior); experiment: Test C postemergence, plant response rating; settings: Ambrosia artemisiifolia, post-emergence
# Text: as §2, §3
# [14] = tested on: velvetleaf (Abutilon theophrasti); experiment: Test C postemergence, plant response rating; settings: Abutilon theophrasti, post-emergence
# Text: as §2, §3
# [15] = tested on: chickweed (common chickweed, Stellaria media); experiment: Test C postemergence, plant response rating; settings: Stellaria media, post-emergence
# Text: as §2, §3
# soybean (Glycine max) = experiment: Test C postemergence, plant response rating; settings: Glycine max, post-emergence
# Text: as §2, §3
# [16] = 62 g ai/ha, scale 0 to 100 (0 no effect, 100 complete control)
# [17] = 125 g ai/ha, scale 0 to 100 (0 no effect, 100 complete control)
smiles,measurement,setting,value
"CC(CC(F)(F)F)OC(=O)c1c(Br)cccc1Oc1ncc(Cl)cn1 (stereo not shown) [Compound 16, 3,3,3-trifluoro-1-methylpropyl 2-bromo-6-[(5-chloro-2-pyrimidinyl)oxy]benzoate]",pest or weed control at 125 g/ha,[1]; 125 g ai/ha,90%
same,pest or weed control at 500 g/ha,[1]; 500 g ai/ha,100%
same,plant injury at 125 g/ha,corn (Zea mays); 125 g ai/ha,20%
same,plant injury at 500 g/ha,corn (Zea mays); 500 g ai/ha,60%
same,pest or weed control at 125 g/ha,[2]; 125 g ai/ha,20%
same,pest or weed control at 500 g/ha,[2]; 500 g ai/ha,90%
same,plant injury at 125 g/ha,[3]; 125 g ai/ha,20%
same,plant injury at 500 g/ha,[3]; 500 g ai/ha,20%
same,pest or weed control at 125 g/ha,[4]; 125 g ai/ha,20%
same,pest or weed control at 500 g/ha,[4]; 500 g ai/ha,90%
same,pest or weed control at 125 g/ha,[5]; 125 g ai/ha,90%
same,pest or weed control at 500 g/ha,[5]; 500 g ai/ha,100%
same,pest or weed control at 125 g/ha,[6]; 125 g ai/ha,10%
same,pest or weed control at 500 g/ha,[6]; 500 g ai/ha,30%
same,pest or weed control at 125 g/ha,kochia (Kochia scoparia); 125 g ai/ha,80%
same,pest or weed control at 500 g/ha,kochia (Kochia scoparia); 500 g ai/ha,100%
same,pest or weed control at 125 g/ha,[7]; 125 g ai/ha,10%
same,pest or weed control at 500 g/ha,[7]; 500 g ai/ha,30%
same,pest or weed control at 125 g/ha,[8]; 125 g ai/ha,10%
same,pest or weed control at 500 g/ha,[8]; 500 g ai/ha,90%
same,pest or weed control at 16 g/ha,"[9]; 16 g ai/ha, scale 0 to 100",0%
same,pest or weed control at 31 g/ha,"[9]; 31 g ai/ha, scale 0 to 100",0%
same,pest or weed control at 62 g/ha,[9]; [16],0%
same,pest or weed control at 125 g/ha,[9]; [17],5%
same,pest or weed control at 16 g/ha,"[10]; 16 g ai/ha, scale 0 to 100",40%
same,pest or weed control at 31 g/ha,"[10]; 31 g ai/ha, scale 0 to 100",50%
same,pest or weed control at 62 g/ha,[10]; [16],40%
same,pest or weed control at 125 g/ha,[10]; [17],60%
same,pest or weed control at 16 g/ha,"[11]; 16 g ai/ha, scale 0 to 100",10%
same,pest or weed control at 31 g/ha,"[11]; 31 g ai/ha, scale 0 to 100",20%
same,pest or weed control at 62 g/ha,[11]; [16],30%
same,pest or weed control at 125 g/ha,[11]; [17],35%
same,pest or weed control at 16 g/ha,"[12]; 16 g ai/ha, scale 0 to 100",0%
same,pest or weed control at 31 g/ha,"[12]; 31 g ai/ha, scale 0 to 100",5%
same,pest or weed control at 62 g/ha,[12]; [16],5%
same,pest or weed control at 125 g/ha,[12]; [17],10%
same,pest or weed control at 16 g/ha,"[13]; 16 g ai/ha, scale 0 to 100",20%
same,pest or weed control at 31 g/ha,"[13]; 31 g ai/ha, scale 0 to 100",10%
same,pest or weed control at 62 g/ha,[13]; [16],10%
same,pest or weed control at 125 g/ha,[13]; [17],40%
same,pest or weed control at 16 g/ha,"[14]; 16 g ai/ha, scale 0 to 100",20%
same,pest or weed control at 31 g/ha,"[14]; 31 g ai/ha, scale 0 to 100",25%
same,pest or weed control at 62 g/ha,"[14]; 62 g ai/ha, scale 0 to 100 (0 no effect, 100 complete control), read-out: Velvetleaf plant response rating",30%
same,pest or weed control at 125 g/ha,[14]; [17],50%
same,pest or weed control at 16 g/ha,"[15]; 16 g ai/ha, scale 0 to 100",20%
same,pest or weed control at 31 g/ha,"[15]; 31 g ai/ha, scale 0 to 100",20%
same,pest or weed control at 62 g/ha,[15]; [16],50%
same,pest or weed control at 125 g/ha,[15]; [17],80%
same,plant injury at 16 g/ha,"soybean (Glycine max); 16 g ai/ha, scale 0 to 100",15%
same,plant injury at 31 g/ha,"soybean (Glycine max); 31 g ai/ha, scale 0 to 100",35%
same,plant injury at 62 g/ha,soybean (Glycine max); [16],50%
same,plant injury at 125 g/ha,soybean (Glycine max); [17],50%
